Test results: patent US4476120A, “Thiolic derivatives of erythromycin having therapeutic activity, and pharmaceutical compositions containing them” (Sigma Tau Indistrie Farmaceutiche Riunites, p.A, priority 1982, dated 1984)
Converted amounts (≈) assume the structure as drawn.

Experiments:
E. coli SS 04 = assay type: cell-based; conditions: Brain Heart Infusion, estolate and RV11-RV15 previously hydrolized, unit assumed
Pr. mirabilis SS 09 = assay type: cell-based; conditions: Brain Heart Infusion, estolate and RV11-RV15 previously hydrolized, unit assumed
E. coli SS 07 = assay type: cell-based; conditions: Brain Heart Infusion, estolate and RV11-RV15 previously hydrolized, unit assumed
Kl. aerogenes SS 71 = assay type: cell-based; conditions: Brain Heart Infusion, estolate and RV11-RV15 previously hydrolized, unit assumed
S. infantis SS 08 = assay type: cell-based; conditions: Brain Heart Infusion, estolate and RV11-RV15 previously hydrolized, unit assumed
B. subtilis SS 127 = assay type: cell-based; conditions: Brain Heart Infusion, estolate and RV11-RV15 previously hydrolized, unit assumed
D. pneumoniae SS 23 [1] = assay type: cell-based; conditions: Brain Heart Infusion, estolate and RV11-RV15 previously hydrolized, unit assumed
N. meningitidis SS 04 = assay type: cell-based; conditions: Brain Heart Infusion, estolate and RV11-RV15 previously hydrolized, unit assumed
Staph. aureus SS 07 [2] = assay type: cell-based; conditions: Brain Heart Infusion, estolate and RV11-RV15 previously hydrolized, unit assumed
Staph. albus SS 03 = assay type: cell-based; conditions: Brain Heart Infusion, estolate and RV11-RV15 previously hydrolized, unit assumed
S. lutea ATCC 9341 = assay type: cell-based; conditions: Brain Heart Infusion, estolate and RV11-RV15 previously hydrolized, unit assumed
E. aerogenes SS 011 = assay type: cell-based; conditions: Brain Heart Infusion, estolate and RV11-RV15 previously hydrolized, unit assumed
E. coli SS 06 = assay type: cell-based; conditions: Brain Heart Infusion, estolate and RV11-RV15 previously hydrolized, unit assumed
Staph. aureus SS 10 = assay type: cell-based; conditions: Brain Heart Infusion, estolate and RV11-RV15 previously hydrolized, unit assumed
C. diphtheriae SS 19 = assay type: cell-based; conditions: Brain Heart Infusion, estolate and RV11-RV15 previously hydrolized, unit assumed
B. anthranis SS 08 = assay type: cell-based; conditions: Brain Heart Infusion, estolate and RV11-RV15 previously hydrolized, unit assumed
[3] = Histological examination of bronchi after SO2 inhalation; assay type: in vivo, Sprague Dawley male rats; conditions: oral, 500 mg/kg
E. coli SS 05 = assay type: cell-based; conditions: Brain Heart Infusion, estolate and RV11-RV15 previously hydrolized, unit assumed
H. pertussis SS 03 = assay type: cell-based; conditions: Brain Heart Infusion, estolate and RV11-RV15 previously hydrolized, unit assumed
Kl. pneumoniae SS 04 = assay type: cell-based; conditions: Brain Heart Infusion, estolate and RV11-RV15 previously hydrolized, unit assumed
Description: (§1) In the following table I the MIC/ml values are indicated corresponding to the lowest concentration capable of inducing a complete inhibition of the bacterial development.

H. tubercolosis SS 03 = assay type: cell-based; conditions: Brain Heart Infusion, estolate and RV11-RV15 previously hydrolized, unit assumed
Description: as §1

S. heidelberg SS 18 = assay type: cell-based; conditions: Brain Heart Infusion, estolate and RV11-RV15 previously hydrolized, unit assumed
Citrobacter SS 09 = assay type: cell-based; conditions: Brain Heart Infusion, estolate and RV11-RV15 previously hydrolized, unit assumed
C. albicans SS 04 = assay type: cell-based; conditions: Brain Heart Infusion, estolate and RV11-RV15 previously hydrolized, unit assumed
[4] = system: Strept. haemolyticus SS 18; assay type: cell-based; conditions: Brain Heart Infusion, estolate and RV11-RV15 previously hydrolized, unit assumed
B. subtilis ATCC 6633 = assay type: cell-based; conditions: Brain Heart Infusion, estolate and RV11-RV15 previously hydrolized, unit assumed
Staph. aureus SS 08 = assay type: cell-based; conditions: Brain Heart Infusion, estolate and RV11-RV15 previously hydrolized, unit assumed
E. cloacae SS 07 = assay type: cell-based; conditions: Brain Heart Infusion, estolate and RV11-RV15 previously hydrolized, unit assumed
Strept. faecalis SS 19 = assay type: cell-based; conditions: Brain Heart Infusion, estolate and RV11-RV15 previously hydrolized, unit assumed
Br. abortus SS 7 = assay type: cell-based; conditions: Brain Heart Infusion, estolate and RV11-RV15 previously hydrolized, unit assumed
Cl. tetani SS 17 = assay type: cell-based; conditions: Brain Heart Infusion, estolate and RV11-RV15 previously hydrolized, unit assumed
Br. melitensis SS 19 = assay type: cell-based; conditions: unit assumed
Ps. aeruginosa SS 10 = assay type: cell-based; conditions: Brain Heart Infusion, estolate and RV11-RV15 previously hydrolized, unit assumed
Citrobacter SS 05 = assay type: cell-based; conditions: Brain Heart Infusion, estolate and RV11-RV15 previously hydrolized, unit assumed
H. influentiae SS 02 = assay type: cell-based; conditions: Brain Heart Infusion, estolate and RV11-RV15 previously hydrolized, unit assumed
[5] = system: Strept. haemolyticus SS 17; assay type: cell-based; conditions: Brain Heart Infusion, estolate and RV11-RV15 previously hydrolized, unit assumed
D. pneumoniae SS 23 [6] = assay: Experimental infection induced by D. pneumoniae SS 23; assay type: in vivo, Swiss white mice; conditions: os; D. pneumoniae SS 23; mg/kg of erythromycin; survival after 7 days; 10080 min
Summary of the method: (§2)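 Swiss mice of 20 g infected parenterally with lethal amounts of Staph. aureus SS 07 or D. pneumoniae SS 23. Antibiotics were given at infection and again 6 and 24 h later. ED50 was derived from survival at 7 days.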

[7] = Mucolytic activity: obstruction of the bronchial tract after SO2 inhalation; assay type: in vivo, Sprague Dawley male rats; conditions: oral, 500 mg/kg; SO2, 15 days
B. cereus ATCC 11778 = assay type: cell-based; conditions: Brain Heart Infusion, estolate and RV11-RV15 previously hydrolized, unit assumed
Staph. aureus SS 07 [8] = assay: Experimental infection induced by Staph. aureus SS 07; assay type: in vivo, Swiss white mice; conditions: os; Staph. aureus SS 07; mg/kg of erythromycin; survival after 7 days; 10080 min
Summary of the method: as §2

Acute toxicity = assay type: in vivo; conditions: mouse, in vivo, po, 14400 min
Method: The acute toxicity was assessed in Swiss white mice by oral and intravenous route. The LD50 values have been calculated by the methods of Probits, starting from the mortality recorded 10 days after the treatment.

B. anthranis SS 09 = assay type: cell-based; conditions: B. anthranis SS 09 (14 bis); Brain Heart Infusion; estolate and RV11-RV15 previously hydrolized; unit assumed

Q: Which MIC (E. coli SS 04) does the source give for `CCC(=O)O[C@H]1[C@H](O[C@@H]2[C@@H](C)[C@H](O[C@H]3C[C@@](C)(OC)[C@@H](O)[C@H](C)O3)[C@@H](C)C(=O)O[C@H](CC)[C@@](C)(O)[C@H](O)[C@@H](C)C(=O)[C@H](C)C[C@@]2(C)O)O[C@H](C)C[C@@H]1N(C)C` [RV15, erythromycin monopropionate N-acetylcysteinate] here?
A: 50 µg/mL (≈ 63.3 µM)

Q: And the MIC (Pr. mirabilis SS 09)?
A: > 200 µg/mL

Q: And the MIC (E. coli SS 07)?
A: 50 µg/mL (≈ 63.3 µM)

Q: And the MIC (Kl. aerogenes SS 71)?
A: 100 µg/mL (≈ 127 µM)

Q: And the MIC (S. infantis SS 08)?
A: 100 µg/mL (≈ 127 µM)

Q: And the MIC (B. subtilis SS 127)?
A: 0.025 µg/mL (≈ 0.0316 µM)

Q: And the MIC (D. pneumoniae SS 23 [1])?
A: 0.05 µg/mL (≈ 0.0633 µM)

Q: What about the MIC (N. meningitidis SS 04) of the same compound?
A: 0.8 µg/mL (≈ 1.01 µM)

Q: What about the MIC (Staph. aureus SS 07 [2]) of the same compound?
A: 0.025 µg/mL (≈ 0.0316 µM)

Q: What about the MIC (Staph. albus SS 03) of the same compound?
A: 0.25 µg/mL (≈ 0.316 µM)

Q: And the MIC (S. lutea ATCC 9341)?
A: 0.01 µg/mL (≈ 0.0127 µM)

Q: What about the MIC (E. aerogenes SS 011) of the same compound?
A: 50 µg/mL (≈ 63.3 µM)

Q: What about the MIC (E. coli SS 06) of the same compound?
A: 25 µg/mL (≈ 31.6 µM)

Q: What about the MIC (Staph. aureus SS 10) of the same compound?
A: 0.05 µg/mL (≈ 0.0633 µM)

Q: And the MIC (C. diphtheriae SS 19)?
A: 0.02 µg/mL (≈ 0.0253 µM)

Q: What about the MIC (B. anthranis SS 08) of the same compound?
A: 0.4 µg/mL (≈ 0.506 µM)

Q: And the “histological appearance of non obstructed bronchi” value ([3]; free non obstructed)?
A: presence of bronchi having almost normal appearance

Q: And the “histological appearance of obstructed bronchial tract” value ([3]; obstructed)?
A: fully like that of the control animals

Q: What about the MIC (E. coli SS 05) of the same compound?
A: 100 µg/mL (≈ 127 µM)

Q: And the MIC (H. pertussis SS 03)?
A: 0.2 µg/mL (≈ 0.253 µM)

Q: What about the MIC (Kl. pneumoniae SS 04) of the same compound?
A: 100 µg/mL (≈ 127 µM)

Q: And the MIC (H. tubercolosis SS 03)?
A: 50 µg/mL (≈ 63.3 µM)

Q: And the MIC (S. heidelberg SS 18)?
A: 100 µg/mL (≈ 127 µM)

Q: And the MIC (Citrobacter SS 09)?
A: > 200 µg/mL

Q: What about the MIC (C. albicans SS 04) of the same compound?
A: 200 µg/mL (≈ 253 µM)

Q: And the MIC [4]?
A: 3 µg/mL (≈ 3.8 µM)

Q: And the MIC (B. subtilis ATCC 6633)?
A: 0.01 µg/mL (≈ 0.0127 µM)

Q: And the MIC (Staph. aureus SS 08)?
A: 0.025 µg/mL (≈ 0.0316 µM)

Q: What about the MIC (E. cloacae SS 07) of the same compound?
A: > 200 µg/mL

Q: And the MIC (Strept. faecalis SS 19)?
A: 0.05 µg/mL (≈ 0.0633 µM)

Q: What about the MIC (Br. abortus SS 7) of the same compound?
A: 6 µg/mL (≈ 7.59 µM)

Q: And the MIC (Cl. tetani SS 17)?
A: 0.2 µg/mL (≈ 0.253 µM)

Q: What about the MIC (Br. melitensis SS 19) of the same compound?
A: 3 µg/mL (≈ 3.8 µM)

Q: What about the MIC (Ps. aeruginosa SS 10) of the same compound?
A: 100 µg/mL (≈ 127 µM)

Q: And the MIC (Citrobacter SS 05)?
A: > 200 µg/mL

Q: What about the MIC (H. influentiae SS 02) of the same compound?
A: 1.5 µg/mL (≈ 1.9 µM)

Q: And the MIC [5]?
A: 1.5 µg/mL (≈ 1.9 µM)

Q: What about the “ED50 (reliability limits)” value (D. pneumoniae SS 23 [6]) of the same compound?
A: 110.90 (135.28-90.92) mg/kg

Q: And the “Partial obstruction (% incidence)” value [7]?
A: 6.66%

Q: And the “Total obstruction, compact plug (% incidence)” value [7]?
A: 20%

Q: And the “Total obstruction, nodular mass (% incidence)” value [7]?
A: 13.33%

Q: And the “Total obstruction, pimply mass (% incidence)” value [7]?
A: 6.66%

Q: And the MIC (B. cereus ATCC 11778)?
A: 0.4 µg/mL (≈ 0.506 µM)

Q: And the “ED50 (reliability limits)” value (Staph. aureus SS 07 [8])?
A: 2.10 (2.49-1.92) mg/kg

Q: And the “LD50 (reliability limits)” value (Acute toxicity)?
A: 3000 mg·kg

Q: And the MIC (B. anthranis SS 09)?
A: 0.4 µg/mL (≈ 0.506 µM)
